Assays:
[1] = molecular target: Sodium-dependent serotonin transporter (Rattus norvegicus, UniProt P31652)
[2] = molecular target: T1, Cholinesterase (Homo sapiens, UniProt P06276)
Description: In vitro inhibition of Butyrylcholinesterase from human plasma.

[3] = molecular target: T2, Acetylcholinesterase (Rattus norvegicus, UniProt P37136)
T2 sequence (P37136 whole entry): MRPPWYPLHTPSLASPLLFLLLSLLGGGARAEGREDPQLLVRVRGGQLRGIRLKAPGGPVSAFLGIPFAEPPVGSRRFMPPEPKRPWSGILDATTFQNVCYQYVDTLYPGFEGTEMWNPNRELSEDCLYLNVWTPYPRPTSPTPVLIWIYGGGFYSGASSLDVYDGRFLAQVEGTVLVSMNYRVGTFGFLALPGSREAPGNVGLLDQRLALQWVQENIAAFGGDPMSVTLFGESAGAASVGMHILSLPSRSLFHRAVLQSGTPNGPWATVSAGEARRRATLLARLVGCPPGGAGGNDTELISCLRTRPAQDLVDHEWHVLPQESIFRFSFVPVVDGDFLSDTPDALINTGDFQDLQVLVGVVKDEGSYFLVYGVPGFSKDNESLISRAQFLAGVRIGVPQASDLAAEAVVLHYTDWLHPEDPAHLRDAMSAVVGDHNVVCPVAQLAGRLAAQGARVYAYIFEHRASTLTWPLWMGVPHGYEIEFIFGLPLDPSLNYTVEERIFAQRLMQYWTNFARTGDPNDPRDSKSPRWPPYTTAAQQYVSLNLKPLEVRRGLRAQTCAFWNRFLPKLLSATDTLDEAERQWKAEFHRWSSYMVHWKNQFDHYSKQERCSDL
Description: In vitro inhibition of acetylcholinesterase, isolated from rat brain.

[4] = molecular target: Norepinephrine transporter (Rattus norvegicus, UniProt Q9WTR4)
Description: Inhibition of neuronal uptake of Noradrenaline in rat brain homogenate

[5] = molecular target: T1, Cholinesterase; assay: Activity against Butyrylcholinesterase (BChE) from human plasma at 100 uM; No block; type: cell-free
[6] = molecular target: T2, Acetylcholinesterase; assay: Inhibitory activity against acetylcholinesterase, isolated from rat brain at 100 uM; No block
[7] = molecular target: T1, Cholinesterase; assay: Activity against Butyrylcholinesterase (BChE) from human plasma at 100 uM; no block; type: cell-free

Sequence of Sodium-dependent serotonin transporter (P31652 whole entry): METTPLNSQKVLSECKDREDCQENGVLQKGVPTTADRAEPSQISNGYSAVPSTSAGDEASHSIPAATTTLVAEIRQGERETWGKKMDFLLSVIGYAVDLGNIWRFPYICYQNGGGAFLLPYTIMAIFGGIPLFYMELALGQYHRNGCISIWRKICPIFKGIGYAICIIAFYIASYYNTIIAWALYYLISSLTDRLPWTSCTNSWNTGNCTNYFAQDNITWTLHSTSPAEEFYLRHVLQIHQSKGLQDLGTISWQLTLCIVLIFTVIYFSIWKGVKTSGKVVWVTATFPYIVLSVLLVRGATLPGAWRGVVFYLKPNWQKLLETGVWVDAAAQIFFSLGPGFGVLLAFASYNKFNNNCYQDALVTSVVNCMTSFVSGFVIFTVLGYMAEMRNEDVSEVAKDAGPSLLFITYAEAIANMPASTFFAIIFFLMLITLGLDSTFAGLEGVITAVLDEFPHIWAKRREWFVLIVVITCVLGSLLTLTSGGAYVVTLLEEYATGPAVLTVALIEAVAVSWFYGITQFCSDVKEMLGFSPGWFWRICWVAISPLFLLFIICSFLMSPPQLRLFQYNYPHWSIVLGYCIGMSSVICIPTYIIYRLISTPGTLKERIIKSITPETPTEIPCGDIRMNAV
T1 sequence (P06276 whole entry): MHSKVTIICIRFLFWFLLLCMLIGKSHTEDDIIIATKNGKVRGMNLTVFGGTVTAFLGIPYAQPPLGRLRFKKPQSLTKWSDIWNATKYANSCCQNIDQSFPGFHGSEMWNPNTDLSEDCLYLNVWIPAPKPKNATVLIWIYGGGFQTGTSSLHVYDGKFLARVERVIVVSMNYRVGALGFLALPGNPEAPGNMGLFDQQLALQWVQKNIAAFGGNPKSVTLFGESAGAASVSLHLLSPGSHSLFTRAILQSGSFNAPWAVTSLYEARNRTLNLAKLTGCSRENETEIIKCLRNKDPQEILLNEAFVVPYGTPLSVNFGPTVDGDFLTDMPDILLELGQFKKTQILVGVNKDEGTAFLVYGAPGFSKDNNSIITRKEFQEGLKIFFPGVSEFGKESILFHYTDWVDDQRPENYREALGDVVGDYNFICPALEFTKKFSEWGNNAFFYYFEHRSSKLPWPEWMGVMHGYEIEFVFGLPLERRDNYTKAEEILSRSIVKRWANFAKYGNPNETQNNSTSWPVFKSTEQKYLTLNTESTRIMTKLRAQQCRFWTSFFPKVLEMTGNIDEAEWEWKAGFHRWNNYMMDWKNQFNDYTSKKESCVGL
Sequence of Norepinephrine transporter (Q9WTR4 whole entry): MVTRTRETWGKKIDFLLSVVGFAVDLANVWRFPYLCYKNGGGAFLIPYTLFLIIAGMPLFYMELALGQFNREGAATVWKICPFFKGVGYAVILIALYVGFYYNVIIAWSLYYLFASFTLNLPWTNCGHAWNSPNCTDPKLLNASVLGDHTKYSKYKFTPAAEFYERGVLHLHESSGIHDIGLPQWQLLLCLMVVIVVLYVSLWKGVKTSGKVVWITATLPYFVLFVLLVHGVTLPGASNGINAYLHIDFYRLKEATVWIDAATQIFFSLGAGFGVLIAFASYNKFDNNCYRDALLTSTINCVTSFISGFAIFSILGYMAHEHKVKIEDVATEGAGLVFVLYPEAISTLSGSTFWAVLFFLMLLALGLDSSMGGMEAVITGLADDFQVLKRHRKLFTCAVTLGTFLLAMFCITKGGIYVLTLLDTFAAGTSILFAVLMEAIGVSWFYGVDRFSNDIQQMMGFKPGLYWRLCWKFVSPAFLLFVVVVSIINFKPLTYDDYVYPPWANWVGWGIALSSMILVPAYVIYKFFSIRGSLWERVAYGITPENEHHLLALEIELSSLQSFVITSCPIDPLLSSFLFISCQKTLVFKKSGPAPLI

SMILES | IC50 [1] [µM] | IC50 [2] [µM] | IC50 [3] [µM] | IC50 [4] [µM] | IC50 [5] | IC50 [6] | IC50 [7]
CC1Cc2c(nc3ccccc3c2N)C1(C)O (centres undefined) | 4.4 | 12.2 | 134 | – | – | – | –
Nc1c2c(nc3ccccc13)-c1ccccc1NCC2 | 4.2 | 18.9 | 69.4 | 3 | – | – | –
Nc1c2ccccc2nc2c1cnc1cc(Cl)ccc12 | > 95 | – | – | 0.2 | No block | No block | –
COc1ccc2c(c1)CCc1c-2nc2ccccc2c1N | 5.8 | – | 47.5 | 1.4 | – | – | no block
Nc1c2c(nc3ccccc13)CCCc1ccccc1-2 | 0.02 | 26.4 | – | – | – | – | –
Nc1c2c(nc3ccccc13)CCC2 | 21 | 0.052 | – | 0.6 | – | – | –
Nc1c2c(nc3ccccc13)CCCCCC2 | 1.1 | 2.3 | – | 0.8 | – | – | –
CCCCC1=C(C)Cc2c1nc1ccccc1c2N | 13 | 42 | 25 | – | – | – | –
CC1=C(C)c2nc3ccccc3c(N)c2C1 | 5.1 | 5.9 | 3.5 | – | – | – | –
CCCCC1(O)c2nc3ccccc3c(N)c2CC1C (centres undefined) | 7.1 | 81 | 91 | 12 | – | – | –
COc1ccc2c(c1)CCCc1c-2nc2ccccc2c1N | 0.7 | > 100 | – | 3.6 | – | – | –
Nc1c2c(nc3ccccc13)-c1ccccc1NCCC2 | 6.9 | 6.7 | 391 | 2.5 | – | – | –
Nc1c2c(nc3ccccc13)CCCCC2 | 3.6 | 0.014 | 0.039 | 6.9 | – | – | –
CC12CCC(c3c1nc1ccccc1c3N)C2(C)C (centres undefined) | 13 | 88 | 110 | – | – | – | –
Nc1c2c(nc3ccccc13)-c1ccccc1CCC2 | 4.7 | 36 | 166 | 1.8 | – | – | –
Nc1c2c(nc3ccccc13)-c1cccc(Cl)c1CC2 | 14.3 | 10.3 | 144 | 41 | – | – | –
Nc1c2c(nc3ccccc13)C1CCC2C1 (centres undefined) | 0.2 | 0.041 | – | 6.1 | – | – | –
Nc1c2c(nc3ccccc13)-c1ccccc1C2 | 2.2 | 3.1 | – | 2.3 | – | – | –
Nc1c2c(nc3ccccc13)-c1ccccc1CC2 | 4.6 | 3.3 | – | 12.1 | – | – | –
